According to article PMC3466060 (2011):

Tested on: 3′-Fl-AM1A-(18)-Rhd (RNA, riboswitch) GAGGGUGGAACCGCGCUUCGGCGUCCCUC
Experiment: FRET binding titration
Conditions: 50 mM NaCl, 5 mM MgCl2

Kd: > 100 µM
Compound: O=C(Cc1ccccc1)OCC1OC(=O)NC1CN1CCN(c2ccccc2)CC1 (racemic)
